Reference: patent US20220281848A1, “PYRAZOLE-SUBSTITUTED PYRROLIDINONES AS HERBICIDES” (FMC Corporation, priority 2019, published 2022)

Tested on: plants
Experiment: Test D pre-emergence, other plants of Tables D1 and D3
Type: in vivo
Settings: preemergent, 20 DAA
Outline: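 Damage was rated visually from 0 (none) to 100 (total), at 20 DAA for pre-emergence and 15 d for post-emergence. Plants grew from safener-treated seed in a glasshouse at 24/18° C. or 20/16° C. day/night, 65% humidity, watered twice daily.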

Which results are given for `CN1CC(c2cc(C(F)(F)F)n(C)n2)C(C(=O)Nc2ccc(F)nc2F)C1=O` (racemic) [Compound 22]?
damage to plant (100=total damage to plant; 0=no damage to plant), ABUTH (rate 15): 0; damage to plant (100=total damage to plant; 0=no damage to plant), ABUTH (rate 30): 0; damage to plant (100=total damage to plant; 0=no damage to plant), ABUTH (rate 60): 0; damage to plant (100=total damage to plant; 0=no damage to plant), ABUTH (rate 130): 0; damage to plant (100=total damage to plant; 0=no damage to plant), ABUTH (rate 250): 0; damage to plant (100=total damage to plant; 0=no damage to plant), ABUTH (rate 500): 0; damage to plant (100=total damage to plant; 0=no damage to plant), AMARE (rate 15): 0; damage to plant (100=total damage to plant; 0=no damage to plant), AMARE (rate 30): 0; damage to plant (100=total damage to plant; 0=no damage to plant), AMARE (rate 60): 0; damage to plant (100=total damage to plant; 0=no damage to plant), AMARE (rate 130): 0; damage to plant (100=total damage to plant; 0=no damage to plant), AMARE (rate 250): 0; damage to plant (100=total damage to plant; 0=no damage to plant), AMARE (rate 500): 0; damage to plant (100=total damage to plant; 0=no damage to plant), BIDPI (rate 15): 0; damage to plant (100=total damage to plant; 0=no damage to plant), BIDPI (rate 30): 0; damage to plant (100=total damage to plant; 0=no damage to plant), BIDPI (rate 60): 0; damage to plant (100=total damage to plant; 0=no damage to plant), BIDPI (rate 130): 0; damage to plant (100=total damage to plant; 0=no damage to plant), BIDPI (rate 250): 0; damage to plant (100=total damage to plant; 0=no damage to plant), BIDPI (rate 500): 0; damage to plant (100=total damage to plant; 0=no damage to plant), BRAPL (rate 15): 0; damage to plant (100=total damage to plant; 0=no damage to plant), BRAPL (rate 30): 20; damage to plant (100=total damage to plant; 0=no damage to plant), BRAPL (rate 60): 70; damage to plant (100=total damage to plant; 0=no damage to plant), BRAPL (rate 130): 80; damage to plant (100=total damage to plant; 0=no damage to plant), BRAPL (rate 250): 90; damage to plant (100=total damage to plant; 0=no damage to plant), BRAPL (rate 500): 90; damage to plant (100=total damage to plant; 0=no damage to plant), CYPES (rate 15): 0; damage to plant (100=total damage to plant; 0=no damage to plant), CYPES (rate 30): 0; damage to plant (100=total damage to plant; 0=no damage to plant), CYPES (rate 60): 0; damage to plant (100=total damage to plant; 0=no damage to plant), CYPES (rate 130): 0; damage to plant (100=total damage to plant; 0=no damage to plant), CYPES (rate 250): 0; damage to plant (100=total damage to plant; 0=no damage to plant), CYPES (rate 500): 0; damage to plant (100=total damage to plant; 0=no damage to plant), DIGSA (rate 15): 0; damage to plant (100=total damage to plant; 0=no damage to plant), DIGSA (rate 30): 20; damage to plant (100=total damage to plant; 0=no damage to plant), DIGSA (rate 60): 80; damage to plant (100=total damage to plant; 0=no damage to plant), DIGSA (rate 130): 80; damage to plant (100=total damage to plant; 0=no damage to plant), DIGSA (rate 250): 100; damage to plant (100=total damage to plant; 0=no damage to plant), DIGSA (rate 500): 100; damage to plant (100=total damage to plant; 0=no damage to plant), ECHCG (rate 15): 0; damage to plant (100=total damage to plant; 0=no damage to plant), ECHCG (rate 30): 0; damage to plant (100=total damage to plant; 0=no damage to plant), ECHCG (rate 60): 60; damage to plant (100=total damage to plant; 0=no damage to plant), ECHCG (rate 130): 80; damage to plant (100=total damage to plant; 0=no damage to plant), ECHCG (rate 250): 90; damage to plant (100=total damage to plant; 0=no damage to plant), ECHCG (rate 500): 100; damage to plant (100=total damage to plant; 0=no damage to plant), ELEIN (rate 15): 0; damage to plant (100=total damage to plant; 0=no damage to plant), ELEIN (rate 30): 0; damage to plant (100=total damage to plant; 0=no damage to plant), ELEIN (rate 60): 0; damage to plant (100=total damage to plant; 0=no damage to plant), ELEIN (rate 130): 0; damage to plant (100=total damage to plant; 0=no damage to plant), ELEIN (rate 250): 0; damage to plant (100=total damage to plant; 0=no damage to plant), ELEIN (rate 500): 0; damage to plant (100=total damage to plant; 0=no damage to plant), EPHHL (rate 15): 0; damage to plant (100=total damage to plant; 0=no damage to plant), EPHHL (rate 30): 0; damage to plant (100=total damage to plant; 0=no damage to plant), EPHHL (rate 60): 0; damage to plant (100=total damage to plant; 0=no damage to plant), EPHHL (rate 130): 0; damage to plant (100=total damage to plant; 0=no damage to plant), EPHHL (rate 250): 0; damage to plant (100=total damage to plant; 0=no damage to plant), EPHHL (rate 500): 0; damage to plant (100=total damage to plant; 0=no damage to plant), GLXMA (rate 15): 0; damage to plant (100=total damage to plant; 0=no damage to plant), GLXMA (rate 30): 0; damage to plant (100=total damage to plant; 0=no damage to plant), GLXMA (rate 60): 0; damage to plant (100=total damage to plant; 0=no damage to plant), GLXMA (rate 130): 0; damage to plant (100=total damage to plant; 0=no damage to plant), GLXMA (rate 250): 0; damage to plant (100=total damage to plant; 0=no damage to plant), GLXMA (rate 500): 0; damage to plant (100=total damage to plant; 0=no damage to plant), IPOHE (rate 15): 0; damage to plant (100=total damage to plant; 0=no damage to plant), IPOHE (rate 30): 0; damage to plant (100=total damage to plant; 0=no damage to plant), IPOHE (rate 60): 0; damage to plant (100=total damage to plant; 0=no damage to plant), IPOHE (rate 130): 0; damage to plant (100=total damage to plant; 0=no damage to plant), IPOHE (rate 250): 0; damage to plant (100=total damage to plant; 0=no damage to plant), IPOHE (rate 500): 0; damage to plant (100=total damage to plant; 0=no damage to plant), ORYSA (rate 15): 0; damage to plant (100=total damage to plant; 0=no damage to plant), ORYSA (rate 30): 0; damage to plant (100=total damage to plant; 0=no damage to plant), ORYSA (rate 60): 0; damage to plant (100=total damage to plant; 0=no damage to plant), ORYSA (rate 130): 0; damage to plant (100=total damage to plant; 0=no damage to plant), ORYSA (rate 250): 0; damage to plant (100=total damage to plant; 0=no damage to plant), ORYSA (rate 500): 0; damage to plant (100=total damage to plant; 0=no damage to plant), PANMI (rate 15): 0; damage to plant (100=total damage to plant; 0=no damage to plant), PANMI (rate 30): 0; damage to plant (100=total damage to plant; 0=no damage to plant), PANMI (rate 60): 0; damage to plant (100=total damage to plant; 0=no damage to plant), PANMI (rate 130): 0; damage to plant (100=total damage to plant; 0=no damage to plant), PANMI (rate 250): 0; damage to plant (100=total damage to plant; 0=no damage to plant), PANMI (rate 500): 0; damage to plant (100=total damage to plant; 0=no damage to plant), SETFA (rate 15): 0; damage to plant (100=total damage to plant; 0=no damage to plant), SETFA (rate 30): 0; damage to plant (100=total damage to plant; 0=no damage to plant), SETFA (rate 60): 0; damage to plant (100=total damage to plant; 0=no damage to plant), SETFA (rate 130): 30; damage to plant (100=total damage to plant; 0=no damage to plant), SETFA (rate 250): 60; damage to plant (100=total damage to plant; 0=no damage to plant), SETFA (rate 500): 90; damage to plant (100=total damage to plant; 0=no damage to plant), SORVU (rate 15): 0; damage to plant (100=total damage to plant; 0=no damage to plant), SORVU (rate 30): 0; damage to plant (100=total damage to plant; 0=no damage to plant), SORVU (rate 60): 0; damage to plant (100=total damage to plant; 0=no damage to plant), SORVU (rate 130): 0; damage to plant (100=total damage to plant; 0=no damage to plant), SORVU (rate 250): 0; damage to plant (100=total damage to plant; 0=no damage to plant), SORVU (rate 500): 0
